Literature values, collected in patent US20240216293A1, “USE OF PERILLYL ALCOHOL TO ENHANCE LEVO-DOPA DELIVERY” (NEONC TECHNOLOGIES, INC, priority 2021, published 2024).

System: patients with recurrent malignant gliomas
Details: Phase I/IIa trials, intranasal

For `C=C(C)C1CC=C(CO)CC1` (stereo not shown) [NEO100, perillyl alcohol], the toxic side effects is listed as “without toxic side effects”.
